Data published in patent US10441540B2, “Liposomal lupeol acetate and the use thereof in preparing drugs for rheumatoid arthritis” (NATIONAL YANG-MING UNIVERSITY, priority 2014, dated 2019).

Key:
[1] = tested on: RAW 264.7 cells; experiment: MTT cell viability of RAW 264.7 cells; format: cell-based; details: 2.5-10 nM, 24 hours
Experimental: RAW 264.7 cells (a mouse leukaemic monocyte macrophage cell line) were treated with solutions containing liposomal lupeol acetate (10 ? 20 ? 40 ? 80 μM) and NF-kB inhibitor QNZ (2.5 ? 5 ? 7.5 ? 10 nM), respectively, for 24 hours, then the viability was analyzed by MTT method, comparing to the results of the control group.
5×10^4 RAW264.7 cells/well were seeded in 96-well culture dishes, and treated with directed concentration of liposomal lupeol acetate and QNZ for 24 hours after the 24-hr attachment. After removing the culture medium, 100 μl of 0.5 mg/ml MTT solution was added, and the cells were incubated at 37° C. for 4 hours. The mitochondrial enzyme (succinate dehydrogenase, SDH) in living cells will react with tetrazolium bromide in the MTT solution and form formazan blue-purple crystals. The MTT solution was removed and 200 μl DMSO was added to dissolve the blue-purple crystal, and then the O.D. (optical density) value was read under wavelength of 570 nm on an ELISA reader (TECAN Sunrise, USA). The relative cell viability is calculated by comparing the absorbance value of drug treated group with that of the control group (setting the value of control group as 100%).

[2] = tested on: NFATc1; experiment: NFATc1 expression by real-time Q-PCR under RANKL induction; format: cell-based; details: NF-κB inhibitor 5 nM
Excerpt: (§1) The cells were stained with tartrate-resistant acid phosphatase (TRAP) and observed by microscopy to assure the differentiation of osteoclast after the cultivation of five days (Bar=200 μm).
Next, the real time Q-PCR is used for analyzing the change of NFATc1 (nuclear factor of activated T cell, the major factor of osteoclast proliferation and known as cytoplasmic 1) under the RANKL induction and drug treatments.

[3] = tested on: osteoclasts; experiment: TRAP staining of RANKL-induced osteoclast differentiation from macrophage; format: cell-based; details: 100 ng/ml RANKL, five days
Excerpt: as §1
To evaluate the effects of the liposomal lupeol acetate (Lipo-LA) of present invention on the suppression of rheumatoid arthritis, we firstly analyze the differentiation of osteoclasts from certain cells using the tartrate-resistant acid phosphatase (TRAP) staining method. The TRAP staining is used to detect the internal acid phosphatase activity of leukocytes in a blood, bone or tissue sample. Because osteoclasts contain acid phosphatase, we can use this staining method to determine the formation of osteoclast cells.
After removing the supernatant of culture, the cells are rinsed with PBS for two times, and then fixed with 3.7% paraformaldehyde for 1 hour. The fixed cells are washed with PBS. The Acid Phophatase Leukocyte kit (TRAP stain, Cat. 387-A, Sigma-Aldrich, USA) is used in the TRAP staining and the method is briefly described as follow. Before staining, the temperature of ddH2O used for adjuvant preparation is confirmed to be 37° C. The Fast Garnet GBC base and sodium nitrite solution at equal volumes are uniformly mixed for 30 seconds and incubated at room temperature for at least two minutes. […]

[4] = tested on: TNF-α; experiment: Immunohistochemistry of TNF-α in leg joints of CIA mice; format: in vivo, mouse; details: 100 mg/kg LA or 50 mg/kg Lipo-LA, day 43, vs RA group
Excerpt: (§2) In FIG. 8A, mice were sacrificed at the end of the animal experiment (day 43), and the legs was removed for the immunohistochemistry (IHC) of TNF-α and IL-1β and H&E staining. The arrows in H&E images indicate the position of articular cavity. There is significant accumulation of TNF-α and IL-1β appeared in the RA group.
(§3) Observing the suppressive effects of Lipo-LA on joint inflammation using immunohistochemistry (IHC). […] The legs of mouse were removed and subjected to paraffin embedding and sectioning. The sections were stained with anti-TNF-α and anti-IL-1β antibodies, respectively to assess the distribution of inflammatory cytokines.

[5] = tested on: IL-1β; experiment: Immunohistochemistry of IL-1β in leg joints of CIA mice; format: in vivo, mouse; details: 100 mg/kg LA or 50 mg/kg Lipo-LA, day 43, vs RA group
Excerpt: as §2, §3

[6] = tested on: inflammatory condition induced by carrageenan; details: Lucetti D L et al. J Inflamm 2010; cited from earlier work
[7] = tested on: rheumatoid arthritis; details: US Patent Application no. 20120177754; 100 mg/kg, 12 days needed in mice; cited from earlier work
[8] = tested on: collagen-induced arthritis (CIA) in DBA/1J mice; experiment: Collagen-induced arthritis (CIA) animal model; details: oral daily
[9] = tested on: TGF-β; experiment: TGF-β in mouse hind leg proteins, Western blotting; details: 100 mg/kg LA or 50 mg/kg Lipo-LA, day 32
Experimental: (§4) The mice were sacrificed by cervical dislocation on the 32nd day of the animal experiment. The whole leg of mouse was removed, and the leg tissue was ground by adding an appropriate amount of lysis buffer (tissue protein extraction reagent, T-PER, Pierce Protein Biology Products, IL, USA), centrifuged at 15,000 rpm for 20 minutes, and the supernatant is taken as the sample for each group.
(§5) Meanwhile, we also use Western blotting to observe the proteins extracted from mouse hind legs, and observe the expression level of immunosuppression-related proteins TGF-β and IL-10 secreted from Treg cells.

[10] = tested on: IL-10; experiment: IL-10 in mouse hind leg proteins, Western blotting; details: 100 mg/kg LA or 50 mg/kg Lipo-LA, day 32
Experimental: as §4, §5

[11] = 100 mg/kg LA or 50 mg/kg Lipo-LA, vs RA group

With `Nc1ccc2ncnc(NCCc3ccc(Oc4ccccc4)cc3)c2c1` [QNZ] the “cell death of RAW264.7 cells (cell viability, MTT)” value [1] was “does not cause significant cell death” and the “expression of NFATc1” value [2] was “reduces”.
In the case of Lupeol acetate [LA], the “differentiation of osteoclast from macrophage (TRAP staining)” value [3] is reported as “inhibitory effects”, the “TNF-α staining (IHC) in joint” value [4] is reported as “improvements” and the “IL-1β staining (IHC) in joint” value [5] is reported as “improvements”. For the same compound, the “inflammatory condition induced by carrageenan in mice” value [6] was “effectively mitigate”, the “inhibiting inflammation and treatment of rheumatoid arthritis” value [7] was “significant therapeutic effect” and the “arthritis scores (highest 16 points per mouse)” value [8, 11] was “significantly less scores”. The foot swelling [8, 11] was “significantly reduced”, the incidence of arthritis [8, 11] was “decreased incidence percentages” and the “toxic effects judged by changes in body weight of mice” value ([8]; 100 mg/kg LA) was “no toxic effects”. The “level of TGF-β” value [9] was “rising trend” and the “level of IL-10” value [10] was “rising trend”.
